pIC50: −log10 of the molar value. Where a SMILES comes first, the peptide text is derived from it.
Target: T1, PTB domain/c-erbB2 binding (GST-PTB domain of SHC; c-erbB2 from SKBR3 lysate) (Homo sapiens, UniProt P29353)
T1 construct: GST-PTB domain fusion proteins were expressed from recombinant baculovirus in sf9 cells; made in house; host or cells: Sf9 cells (recombinant baculovirus) for GST-PTB; c-erbB2 endogenous in SKBR3 cell lysate
T1 sequence (P29353 156-341): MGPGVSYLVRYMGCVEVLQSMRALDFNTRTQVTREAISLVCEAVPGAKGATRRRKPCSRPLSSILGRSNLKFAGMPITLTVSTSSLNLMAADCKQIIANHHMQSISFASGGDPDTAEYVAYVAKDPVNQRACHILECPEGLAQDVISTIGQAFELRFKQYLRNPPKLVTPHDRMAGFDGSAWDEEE
Test: biochemical
Conditions: Inhibition (relative inhibition scale of IC50)

SMILES	pIC50
C[C@H](NC(=O)[C@@H]1CCCN1)C(=O)N[C@@H](Cc1ccccc1)C(=O)N[C@@H](CO)C(=O)N1CCC[C@H]1C(=O)N[C@@H](C)C(=O)N[C@@H](Cc1ccccc1)C(=O)N[C@@H](CC(=O)O)C(=O)N[C@@H](CC(N)=O)C(=O)N[C@@H](C)C(=O)N[C@@H](Cc1ccc(O)cc1)C(=O)N[C@@H](Cc1ccc(OP(=O)(O)O)cc1)C(=O)N[C@@H](Cc1c[nH]c2ccccc12)C(=O)N[C@@H](CC(=O)O)C(=O)N[C@@H](CCC(N)=O)C(=O)N[C@@H](CC(N)=O)C(=O)N[C@@H](CO)C(=O)N[C@@H](CO)C(=O)N[C@@H](CCC(=O)O)C(=O)N[C@@H](CCC(N)=O)C(=O)NCC(=O)O [PAFSPAFDNAY (pY) WDQNSSEQG, PAFSPAFDNAY(pY)WDQNSSEQG] (HELM PEPTIDE1{P.A.F.S.P.A.F.D.N.A.Y.[O=C([C@H](Cc1ccc(OP(=O)(O)O)cc1)N[*:1])[*:2]].W.D.Q.N.S.S.E.Q.G}$$$$V2.0)	5.30 to 6.30
CC(C)C[C@H](NC(=O)[C@H](CC(N)=O)NC(=O)[C@H](CC(=O)O)NC(=O)[C@H](Cc1ccccc1)NC(=O)[C@H](C)NC(=O)[C@@H]1CCCN1C(=O)[C@H](CO)NC(=O)[C@H](Cc1ccccc1)NC(=O)[C@H](C)NC(=O)[C@@H]1CCCN1)C(=O)N[C@@H](C)C(=O)N[C@@H](Cc1ccc(O)cc1)C(=O)N[C@@H](Cc1ccc(OP(=O)(O)O)cc1)C(=O)N[C@@H](Cc1c[nH]c2ccccc12)C(=O)N[C@@H](CC(=O)O)C(=O)N[C@@H](CCC(N)=O)C(=O)N[C@@H](CC(N)=O)C(=O)N[C@@H](CO)C(=O)N[C@@H](CO)C(=O)N[C@@H](CCC(=O)O)C(=O)N[C@@H](CCC(N)=O)C(=O)NCC(=O)O [PAFSPAFDNLAY (pY) WDQNSSEQG] (HELM PEPTIDE1{P.A.F.S.P.A.F.D.N.L.A.Y.[O=C([C@H](Cc1ccc(OP(=O)(O)O)cc1)N[*:1])[*:2]].W.D.Q.N.S.S.E.Q.G}$$$$V2.0)	5.30 to 6.30
CC(C)C[C@H](NC(=O)[C@H](CC(N)=O)NC(=O)[C@H](CC(=O)O)NC(=O)[C@H](Cc1ccccc1)NC(=O)[C@H](C)NC(=O)[C@@H]1CCCN1C(=O)[C@H](CO)NC(=O)[C@H](Cc1ccccc1)NC(=O)[C@H](C)NC(=O)[C@@H]1CCCN1)C(=O)N[C@@H](Cc1ccccc1)C(=O)N[C@@H](Cc1ccc(O)cc1)C(=O)N[C@@H](Cc1ccc(OP(=O)(O)O)cc1)C(=O)N[C@@H](Cc1c[nH]c2ccccc12)C(=O)N[C@@H](CC(=O)O)C(=O)N[C@@H](CCC(N)=O)C(=O)N[C@@H](CC(N)=O)C(=O)N[C@@H](CO)C(=O)N[C@@H](CO)C(=O)N[C@@H](CCC(=O)O)C(=O)N[C@@H](CCC(N)=O)C(=O)NCC(=O)O [PAFSPAFDNLFY (pY) WDQNSSEQG] (HELM PEPTIDE1{P.A.F.S.P.A.F.D.N.L.F.Y.[O=C([C@H](Cc1ccc(OP(=O)(O)O)cc1)N[*:1])[*:2]].W.D.Q.N.S.S.E.Q.G}$$$$V2.0)	5.30 to 6.30
CC(C)C[C@H](NC(=O)[C@H](CC(N)=O)NC(=O)[C@H](CC(=O)O)NC(=O)[C@H](Cc1ccccc1)NC(=O)[C@H](C)NC(=O)[C@@H]1CCCN1C(=O)[C@H](CO)NC(=O)[C@H](Cc1ccccc1)NC(=O)[C@H](C)NC(=O)[C@@H]1CCCN1)C(=O)N[C@@H](Cc1ccc(O)cc1)C(=O)N[C@@H](Cc1ccc(OP(=O)(O)O)cc1)C(=O)N[C@@H](C)C(=O)N[C@@H](CC(=O)O)C(=O)N[C@@H](CCC(N)=O)C(=O)N[C@@H](CC(N)=O)C(=O)N[C@@H](CO)C(=O)N[C@@H](CO)C(=O)N[C@@H](CCC(=O)O)C(=O)N[C@@H](CCC(N)=O)C(=O)NCC(=O)O [PAFSPAFDNLY (pY) ADQNSSEQG] (HELM PEPTIDE1{P.A.F.S.P.A.F.D.N.L.Y.[O=C([C@H](Cc1ccc(OP(=O)(O)O)cc1)N[*:1])[*:2]].A.D.Q.N.S.S.E.Q.G}$$$$V2.0)	< 4.30
CC(C)C[C@H](NC(=O)[C@H](CC(N)=O)NC(=O)[C@H](CC(=O)O)NC(=O)[C@H](Cc1ccccc1)NC(=O)[C@H](C)NC(=O)[C@@H]1CCCN1C(=O)[C@H](CO)NC(=O)[C@H](Cc1ccccc1)NC(=O)[C@H](C)NC(=O)[C@@H]1CCCN1)C(=O)N[C@@H](Cc1ccc(O)cc1)C(=O)N[C@@H](Cc1ccc(OP(=O)(O)O)cc1)C(=O)N[C@@H](Cc1ccccc1)C(=O)N[C@@H](CC(=O)O)C(=O)N[C@@H](CCC(N)=O)C(=O)N[C@@H](CC(N)=O)C(=O)N[C@@H](CO)C(=O)N[C@@H](CO)C(=O)N[C@@H](CCC(=O)O)C(=O)N[C@@H](CCC(N)=O)C(=O)NCC(=O)O [PAFSPAFDNLY (pY) FDQNSSEQG, PAFSPAFDNLY(pY)FDQNSSEQG] (HELM PEPTIDE1{P.A.F.S.P.A.F.D.N.L.Y.[O=C([C@H](Cc1ccc(OP(=O)(O)O)cc1)N[*:1])[*:2]].F.D.Q.N.S.S.E.Q.G}$$$$V2.0)	5.30 to 6.30
CC(C)C[C@H](NC(=O)[C@H](CC(N)=O)NC(=O)[C@H](CC(=O)O)NC(=O)[C@H](Cc1ccccc1)NC(=O)[C@H](C)NC(=O)[C@@H]1CCCN1C(=O)[C@H](CO)NC(=O)[C@H](Cc1ccccc1)NC(=O)[C@H](C)NC(=O)[C@@H]1CCCN1)C(=O)N[C@@H](Cc1ccc(O)cc1)C(=O)N[C@@H](Cc1ccc(OP(=O)(O)O)cc1)C(=O)N[C@@H](Cc1c[nH]c2ccccc12)C(=O)N[C@@H](C)C(=O)N[C@@H](CCC(N)=O)C(=O)N[C@@H](CC(N)=O)C(=O)N[C@@H](CO)C(=O)N[C@@H](CO)C(=O)N[C@@H](CCC(=O)O)C(=O)N[C@@H](CCC(N)=O)C(=O)NCC(=O)O [PAFSPAFDNLY (pY) WAQNSSEQG, PAFSPAFDNLY(pY)WAQNSSEQG] (HELM PEPTIDE1{P.A.F.S.P.A.F.D.N.L.Y.[O=C([C@H](Cc1ccc(OP(=O)(O)O)cc1)N[*:1])[*:2]].W.A.Q.N.S.S.E.Q.G}$$$$V2.0)	6.30 to 7.30
CC(C)C[C@H](NC(=O)[C@H](CC(N)=O)NC(=O)[C@H](CC(=O)O)NC(=O)[C@H](Cc1ccccc1)NC(=O)[C@H](C)NC(=O)[C@@H]1CCCN1C(=O)[C@H](CO)NC(=O)[C@H](Cc1ccccc1)NC(=O)[C@H](C)NC(=O)[C@@H]1CCCN1)C(=O)N[C@@H](Cc1ccc(O)cc1)C(=O)N[C@@H](Cc1ccc(OP(=O)(O)O)cc1)C(=O)N[C@@H](Cc1c[nH]c2ccccc12)C(=O)N[C@@H](CC(=O)O)C(=O)N[C@@H](C)C(=O)N[C@@H](CC(N)=O)C(=O)N[C@@H](CO)C(=O)N[C@@H](CO)C(=O)N[C@@H](CCC(=O)O)C(=O)N[C@@H](CCC(N)=O)C(=O)NCC(=O)O [PAFSPAFDNLY (pY) WDANSSEQG, PAFSPAFDNLY(pY)WDANSSEQG] (HELM PEPTIDE1{P.A.F.S.P.A.F.D.N.L.Y.[O=C([C@H](Cc1ccc(OP(=O)(O)O)cc1)N[*:1])[*:2]].W.D.A.N.S.S.E.Q.G}$$$$V2.0)	5.30 to 6.30
CC(C)C[C@H](NC(=O)[C@H](CC(N)=O)NC(=O)[C@H](CC(=O)O)NC(=O)[C@H](Cc1ccccc1)NC(=O)[C@H](C)NC(=O)[C@@H]1CCCN1C(=O)[C@H](CO)NC(=O)[C@H](Cc1ccccc1)NC(=O)[C@H](C)NC(=O)[C@@H]1CCCN1)C(=O)N[C@@H](Cc1ccc(O)cc1)C(=O)N[C@@H](Cc1ccc(OP(=O)(O)O)cc1)C(=O)N[C@@H](Cc1c[nH]c2ccccc12)C(=O)N[C@@H](CC(=O)O)C(=O)N[C@@H](CC(=O)O)C(=O)N[C@@H](CC(N)=O)C(=O)N[C@@H](CO)C(=O)N[C@@H](CO)C(=O)N[C@@H](CCC(=O)O)C(=O)N[C@@H](CCC(N)=O)C(=O)NCC(=O)O [PAFSPAFDNLY (pY) WDDNSSEQG, PAFSPAFDNLY(pY)WDDNSSEQG] (HELM PEPTIDE1{P.A.F.S.P.A.F.D.N.L.Y.[O=C([C@H](Cc1ccc(OP(=O)(O)O)cc1)N[*:1])[*:2]].W.D.D.N.S.S.E.Q.G}$$$$V2.0)	5.30 to 6.30
CC(C)C[C@H](NC(=O)[C@H](CC(N)=O)NC(=O)[C@H](CC(=O)O)NC(=O)[C@H](Cc1ccccc1)NC(=O)[C@H](C)NC(=O)[C@@H]1CCCN1C(=O)[C@H](CO)NC(=O)[C@H](Cc1ccccc1)NC(=O)[C@H](C)NC(=O)[C@@H]1CCCN1)C(=O)N[C@@H](Cc1ccc(O)cc1)C(=O)N[C@@H](Cc1ccc(OP(=O)(O)O)cc1)C(=O)N[C@@H](Cc1c[nH]c2ccccc12)C(=O)N[C@@H](CC(=O)O)C(=O)N[C@@H](CC(N)=O)C(=O)N[C@@H](CC(N)=O)C(=O)N[C@@H](CO)C(=O)N[C@@H](CO)C(=O)N[C@@H](CCC(=O)O)C(=O)N[C@@H](CCC(N)=O)C(=O)NCC(=O)O [PAFSPAFDNLY (pY) WDNNSSEQG, PAFSPAFDNLY(pY)WDNNSSEQG] (HELM PEPTIDE1{P.A.F.S.P.A.F.D.N.L.Y.[O=C([C@H](Cc1ccc(OP(=O)(O)O)cc1)N[*:1])[*:2]].W.D.N.N.S.S.E.Q.G}$$$$V2.0)	5.30 to 6.30
CC(C)C[C@H](NC(=O)[C@H](CC(N)=O)NC(=O)[C@H](CC(=O)O)NC(=O)[C@H](Cc1ccccc1)NC(=O)[C@H](C)NC(=O)[C@@H]1CCCN1C(=O)[C@H](CO)NC(=O)[C@H](Cc1ccccc1)NC(=O)[C@H](C)NC(=O)[C@@H]1CCCN1)C(=O)N[C@@H](Cc1ccc(O)cc1)C(=O)N[C@@H](Cc1ccc(OP(=O)(O)O)cc1)C(=O)N[C@@H](Cc1c[nH]c2ccccc12)C(=O)N[C@@H](CC(=O)O)C(=O)N[C@@H](CCC(N)=O)C(=O)N[C@@H](C)C(=O)N[C@@H](CO)C(=O)N[C@@H](CO)C(=O)N[C@@H](CCC(=O)O)C(=O)N[C@@H](CCC(N)=O)C(=O)NCC(=O)O [PAFSPAFDNLY (pY) WDQASSEQG, PAFSPAFDNLY(pY)WDQASSEQG] (HELM PEPTIDE1{P.A.F.S.P.A.F.D.N.L.Y.[O=C([C@H](Cc1ccc(OP(=O)(O)O)cc1)N[*:1])[*:2]].W.D.Q.A.S.S.E.Q.G}$$$$V2.0)	5.30 to 6.30

Reference: patent US20020156236A1, “Binding sites for phosphotyrosine binding domains” (priority 1995, published 2002)
